Consider two compounds from patent US11298402B2, “Lysosomal degradation of lipids and proteins and method of use thereof” (University of Ottawa, priority 2015, dated 2022).

The subject of series [1] is hepatic cells. Description: Prolonged oleate treatment (OA-induced steatosis) of hepatic cells. It is filed as cell-based. The conditions noted are these: oleate 0.4 mM for up to 3 days. An excerpt:
FIG. 36 illustrates that the LD content in cells cultured under lipid-rich conditions may be manipulated by expression of different forms of Arl8b. Images in the top row show position of lysosomes in cells cultured in a lipid-rich medium (i.e. supplemented with oleate) for up to 4 days. After 1-day treatment with oleate, lysosomes (stained with LysoTracker, green) were accumulated in the perinuclear regions of cells. However after 2-day oleate treatment, lysosomes were relocated towards the LDs at cell periphery. The relocation of lysosomes from the perinuclear region toward cell periphery indicates perturbed lysosomal motility under oleate-treatment conditions, which leads to prolonged association of lysosomes with LDs. Accumulation/higher interaction of lysosomes on LDs became more pronounced after 3- and 4-day treatment with oleate, with clear rings of lysosomes around LDs. Expression of the GDP-bound form of Arl8b, or Arl8b^T34N (or Arl8b “DN”, dominant negative), protects hepatocytes from accumulation of LDs upon long-term treatment with oleate. Note that even after 3 days, cells expressing Arl8b “DN” were healthy and accumulated low numbers of LDs (middle row). In contrast, expression of the GTP-bound form of Arl8b, or Arl8b^Q75L (or Arl8b “DA”, dominant active), exacerbated accumulation of LDs in cells (images in the bottom row). In fact, the cells could not tolerate long-term treatment and started to die after day 2. This situation may be similar to that in advanced levels of fatty liver, which causes hepatocyte apoptosis;
In these cells, lysosomes were continuously in contact with CLD, indicative of stalled lysosomal motility. This persistent lysosomal interaction with CLDs (i.e. “kiss” without “run”) clearly indicates the interfered process of microautophagy and lack of a mechanism in the cells, after prolonged OA treatment, that facilitates dissociation of lysosomes from CLDs, blocking the engulfment process. Thus, phenotypically, accumulation of CLD in cells cultured in lipid-rich media (e.g. supplementation with 0.4 mM OA) is invariably associated with a compromised lysosomal motility (i.e. kiss-and-run).

Series [2] deals with McA-RH7777 cells (A18-C3). Description: Live imaging of lysosomal motility and lysosome-CLD interaction (kiss-and-run). The series is classed as cell-based, rat. As for the experimental part: (§1) In certain non-limiting examples described herein, McA-RH7777 cells stably expressing human apoB-100 and human apoC-III (designated A18-C3) were used for the studies. […] In addition, these studies, particularly those concerning EPA- or DHA-triggered lysosomal motility and CLD degradation, were also performed using primary rat hepatocytes. Transfection of plasmids encoding proteins of interest, or transfection of siRNA specific for silencing target gene expression, was achieved using the FuGENE HP Extreme reagent (Roche). Representative gene silencing siRNA sequences, which are not meant to be limiting, are described in Table 1, and plasmids encoding proteins of interest are described in Table 2. The effectiveness of siRNA silencing was verified by Western-blotting of cellular content of the target proteins, and by intracellular localization assay using siRNA-Tracker (Mirus Bioscience). Twenty-four h after plasmid transfection, or 48 h after siRNA transfection, the cells were cultured in lipid-rich media containing fetal bovine serum (20%) and OA (0.4 mM). The lipid-laden cells were switched to fresh media supplemented with OA or EPA (0.4 mM). In live imaging experiments, LipidTOX Red (Life Technologies) and LysoTracker (Life Technologies) were added to media prior to EPA treatment, to visualize lipid droplets and lysosomes, respectively. For visualizing peroxisomes, Peroxisome-GFP (Invitrogen) was introduced to the cells 24 h prior to experiments. Quantification of cell lipid contents was achieved either by direct mass measurement (HPTLC) and counting the number of lipid droplets using Image J Lipid Droplet Counter Plug-In, or indirectly by Western blot analysis of cellular content of ADRP. Secretion of apoB and TG-rich lipoprotein was determined by Western blot analysis and metabolic labeling. Mitochondrial β-oxidation was measured using MitoSOX Red (Life Technologies) in situ. Autophagic flux was determined by using Cyto-ID assay (Enzo Life Science) and by monitoring GFP-LC3 clustering in situ. Interaction of Arl8b and subunits of the HOPS complex was determined in situ by the proximity ligation assay (Olink Biosience). Cytoplasmic pH was measured using the cytosolic pHrodo indicator reagent (Invitrogen). Live imaging of fluorescent-tagged proteins was performed 1 h post-EPA treatment. Cells were also collected at the time of EPA treatment for transmission EM and tomography, as well as immuno-EM. For movies, cells were imaged at 60 sec intervals every 5 min, for a total of 30 min.
Cells were grown on 35-mm glass bottom dishes (Ibidi GmbH München, Germany) for 16 h in DMEM supplemented with FBS (20%) and OA (0.4 mM). Cells were imaged using a Zeiss 510 META laser scanning confocal microscope with a heated CO2-controlled stage (5% CO2 at 37° C.). Images were captured at a frame-rate of 30 frame/sec using a 63×. N.A.1.4 objective. Recommended laser lines and filter combinations were used for each dye. For visualization of lipid droplets, lysosomes, mitochondria, and mitochondrial β-oxidation, the respective reagents LipidTOX Red (Invitrogen), LysoTracker (Life Technology), MitoTracker (Life Technology), MitoSox Red (Invitrogen), and Peroxisome-GFP BacMam2.0 (Invitrogen) were introduced into the cells, according to manufacturers' recommendations, prior to EPA treatment.
Cells were cultured with lipid-rich media containing OA (0.4 mM) for 16 h. The lipid-laden cells were switched to fresh media containing EPA (0.4 mM) for 1 h, and the lysosomal movement towards lipid droplets was recorded by time-lapse microscopy. Fluorescent intensity of lysosomal signals at the periphery of selected individual lipid droplet was measured using Image J Live Intensity Profiler Plug-in^31-33 over a period of 40 sec. Quantification for each condition was carried out for 60 individual lipid droplets from three independent experiments. Constant threshold was applied to all of the images in each experiment.

For series [3], the system named is McA-RH7777 cells (A18-C3). The experiment in a line: Measurement of cytosolic pH (pHrodo). It is filed as cell-based, rat. Particulars: OA or EPA treatment. The protocol:
In certain non-limiting examples described herein, McA-RH7777 cells stably expressing human apoB-100 and human apoC-III (designated A18-C3) were used for the studies. […] In addition, these studies, particularly those concerning EPA- or DHA-triggered lysosomal motility and CLD degradation, were also performed using primary rat hepatocytes. Transfection of plasmids encoding proteins of interest, or transfection of siRNA specific for silencing target gene expression, was achieved using the FuGENE HP Extreme reagent (Roche). […] Quantification of cell lipid contents was achieved either by direct mass measurement (HPTLC) and counting the number of lipid droplets using Image J Lipid Droplet Counter Plug-In, or indirectly by Western blot analysis of cellular content of ADRP. Secretion of apoB and TG-rich lipoprotein was determined by Western blot analysis and metabolic labeling. Mitochondrial β-oxidation was measured using MitoSOX Red (Life Technologies) in situ. Autophagic flux was determined by using Cyto-ID assay (Enzo Life Science) and by monitoring GFP-LC3 clustering in situ. Interaction of Arl8b and subunits of the HOPS complex was determined in situ by the proximity ligation assay (Olink Biosience). Cytoplasmic pH was measured using the cytosolic pHrodo indicator reagent (Invitrogen). […]

For series [4], the system named is hepatic cells. Description: Hepatic glucose uptake (fluorescent 2-NBDG assay). The series is classed as cell-based. Particulars: transfected cells treated with EPA.
In series [5] the test system is McA-RH7777 cells (A18-C3). Description: Immuno-EM of Arl8b organellar association. The series is classed as cell-based, rat. The conditions noted are these: RFP-tagged Arl8b in transfected cells, 1 h post-EPA. The protocol: For immunogold labeling, pellets of cells cultured in media containing OA or EPA (0.4 mM) were fixed with 0.5% glutaraldehyde and 4% paraformaldehyde in 0.1 M phosphate buffer (pH 7.4) and dehydrated through a series of graded ethanol dilutions, and embedded in LR White acrylic resin (London Resin Company). Ultrathin sections (80 nm) were placed on Formvar-coated nickel grids. For post-embedding immunolabeling, the sections were incubated with an anti-Arl8b antibody (Fitzgerald) for 1 h. For ^RFPArl8b-transfected cells, that primary antibody used was anti-RFP (Abcam). After washing with 0.2 M sodium cacodylate buffer containing 0.1% calcium chloride, pH 7.4, the samples were incubated with the secondary antibody conjugated with 10-nm gold particles. To increase contrast, the ultrathin sections were stained with 2% uranyl acetate for 6 min and Reynold's lead for 5 min. The grids were examined with a Tecnai 12 120 kV TEM as described above.

The subject of series [6] is McA-RH7777 cells stably expressing human apoB-100 and human apoC-III (A18-C3). The series is classed as cell-based. The conditions noted are these: cells silenced, transfected or pre-treated, then EPA 0.4 mM, 6 h. The protocol: as §1
The A18-C3 cells were cultured in DMEM (Invitrogen) supplemented with fetal bovine serum (20%), penicillin (50 U/mL), streptomycin (50 μg/mL, Invitrogen) and Geneticin/G418 (500 μg/mL, Gibco) at 37° C. in 5% CO2. Transfection was conducted when cells were 60-70% confluence. Appropriate plasmids were mixed with FuGENE HP extreme reagent (Roche Diagnostic), according to manufacturer's protocol, and incubated for 30 min. Twenty-four h after transfection, cells were switched to lipid-rich media containing OA (0.4 mM) for additional 16 h prior to imaging and biochemical analysis. In silencing experiments, appropriate siRNAs were transfected into cells using the X-treme GENE siRNA regent (Roche Diagnostic). Localization of siRNA in transfected cells in situ was carried out using the Cy5 Label IT-siRNA Tracker (Minis Bioscience #7213) according to manufacturer's protocol. Forty-eight h after transfection, cells were switched to lipid-rich media containing OA (0.4 mM) for additional 16 h prior to imaging and biochemical analysis.
Quantification of lipid droplets was carried out using confocal and differential interface contrast (DIC) microscopy. Lipid droplets were stained with LipidTOX Red (Invitrogen) before adding OA or EPA. All images were visualized using a 63× oil immersion objective lens. Z-series stacks were acquired with 0.2 μm steps. […]

In series [7] the test system is endogenous HOPS subunits (Vps41, Vps11, Vps39). Description: Proximity ligation assay (in situ co-IP) of Arl8b with HOPS subunits. The conditions noted are these: mCherry-tagged Arl8b. The series is classed as cell-based, rat. As for the experimental part:
as §1
Cells were transfected with plasmids encoding RFP-tagged Arl8b^WT, Arl8b^Q75L, or Arl8b^T34N. The cells were treated with OA for 16 h (baseline condition as control). […] Quantification of signals was done in a total of 50 cells under each condition from 3 independent experiments.

The next series has as its system C57BL/6 mice. Description: Diet-induced fatty liver mouse model (high-fat-high-sucrose diet), Oil Red O. It is filed as in vivo. Particulars: adenovirus injected 1 day before HFHS diet for up to 4 days. The protocol:
The respective Arl8b^T34N (DN), Arl8b^Q75L (DA), and Arl8b^WT constructs, along with empty virus (EV; control treatment) were injected into mice 1 day prior to feeding with a high fat diet for up to 4 days. The livers were stained with Oil Red O to determine the lipid contents, under the expression of various forms of Arl8b.
In these experiments, C57BL/6 mice were injected with adenovirus encoding different variants, namely Arl8b^T34N, Arl8b^Q75L, and Arl8b^WT. In these mice, expression of Arl8b proteins encoded by the adenoviral vectors lasts at least a few weeks. Thus, 1-day after viral injection, the mice were placed on a high-fat-high-sucrose (HFHS) diet for up to 4 days.

With `CCCCCCCC/C=C\CCCCCCCC(=O)O` [OA, oleic acid, reference compound], the “steatosis (CLD accumulation)” value with hepatic cells [1] is “developed severe steatosis”. The “lysosomal motility and direct lysosomal interaction with CLD” value in series [2] (fatty acid added to lipid-laden cells, live imaging) is “reduced levels of interaction between lysosomes and lipid droplets”. For the same compound, in series [2] (oleate treatment), the activation of microautolipophagy entry was “transient and is of low magnitude”; the “duration of the brief activation of microautolipophagy” value was 10 to 15 min. Further, the “cytoplasmic pH” value in series [3] is recorded as “neutral”.
Take “Arl8b^WT: wild-type ADP-ribosylation factor-like protein 8b, overexpressed from plasmid or adenovirus; tagged forms used”: in the series with hepatic cells [4], the glucose uptake entry is reported as “Low level of glucose uptake”. Besides, in series [5], the “organellar association (lysosome vs CLD)” value is “dual presentation between lysosomes and CLD”. For the same compound, in series [6], the “effect on EPA-induced lipid degradation (CLD turnover)” value is reported as “An increase in lipid degradation”. The “binding to endogenous HOPS subunits” value is “binds predominately to endogenous Vps41 and to a lesser extent Vps11” in series [7] (cells treated with OA); “binds to all three Vps proteins examined” in series [7] (upon addition of EPA). Also, in the series with C57BL/6 mice, the “liver steatosis (Oil Red O)” value was “steatosis became apparent”. Besides, the “duration of association between lysosomes and CLD (the on phase)” value in series [2] (GFP-tagged Arl8b-expressing cells, EPA) was “approximately 15 seconds”. In addition, the “effect on EPA-triggered lysosomal motility / lysosomal interaction with CLD” value in series [2] (cells silenced, transfected or pre-treated (15 min) before EPA) is “does not affect lysosomal motility”.
